Like-named read-outs stand apart in the source and are kept apart here.
Experiments:
[1] = Conversion rate (CR) assay with fluorescamine; format: physicochemical
In short: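 Lyophilized PNF (from 1 mg/mL) scanned 64× on diamond ATR, 2 cm^-1 resolution; β-sheet content per earlier report. CR: spin through 3 kDa MWCO, 16200 x g, 4 °C, 45 min; lyophilize filtrate + unfiltered; DMSO; fluorescamine 20 min RT; ex 365/em 470.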

[2] = Aggregate analysis by widefield fluorescence microscopy; format: physicochemical
In short: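 Peptides diluted from 10 mg/mL DMSO stock to 1 mg/mL in PBS and aged 1 d at RT were diluted to 0.1 mg/mL with 50 µM ThT, then imaged with a 10x objective in fluorescence (ex 480/40, em 527/30 nm) and brightfield. Particles >10 µm^2 were counted by automated object counting over ≥3 images.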

[3] = Fig S8 panels A, C, 3 fields of 1330 µm x 1330 µm
[4] = Fig S8 panels B, D, average aggregate area, 3 fields of 1330 µm x 1330 µm
[5] = Fig S8 panels B, D, median aggregate area, 3 fields of 1330 µm x 1330 µm
[6] = Fig S8 panels B, D, 3 fields of 1330 µm x 1330 µm
[7] = Fig S8 panels B, D, widefield fluorescence microscopy, 3 fields of 1330 µm x 1330 µm

| Substance | Conversion Rate / % [1] | Conversion Rate / % ([1]; fluorescamine assay) | Avg Area in 3 *(1330 µm *1330 µm) ([2]; Fig S8 panels A, C) | Log 10 Number of aggregates in 3 * (1330 µm *1330 µm) ([2]; Fig S8 panels A, C) | Median Area in 3 * (1330 µm *1330 µm) ([2]; Fig S8 panels A, C) | log Avg Area in 3 * ( (1330 µm *1330 µm)) ([2]; Fig S8 panels A, C) | log Median Area in 3 * ( (1330 µm *1330 µm)) ([2]; Fig S8 panels A, C) | log Total Area of all particles in 3 * (1330 µm *1330 µm) ([2]; Fig S8 panels A, C) | Number of aggregates in 3 * (1330 µm *1330 µm) [2, 3] | Avg Area in 3 *(1330 µm *1330 µm) [2, 4] | Median Area in 3 * (1330 µm *1330 µm) [2, 5] | Total Area of all particles in 3 * (1330 µm *1330 µm) [2, 6] | Number of aggregates in 3 * (1330 µm *1330 µm) [2, 7] |
| --- | --- | --- | --- | --- | --- | --- | --- | --- | --- | --- | --- | --- | --- |
| CKFKFQF [BL4] | 96.11% | 96.11% | 86.55 | 2.108 | 22.111 | 1.937 | 1.345 | 4.0456 | 128.3 | 86.55 | 22.111 | 11106.98933 | 128.3 |
| KIKIQIC [TM112 / CN11] |  | 51.55% | 23.45 | 1.912 | 12.96 | 1.37 | 1.1125 | 3.282 | 81.67 | 23.45 | 12.96 | 1915.068 | 81.67 |
| CHLHLQL [CN9] |  | 96.58% | 330.1 | 1.5563 | 35.7 | 2.5187 | 1.553 | 4.075 | 36 | 330.1 | 35.7 | 11885.21533 | 36 |
| QCKFKQFFNMWQ [CK10] | 98.72% | 98.72% |  |  |  |  |  |  |  | 30.56 | 15.07 | 55430.97933 | 1814 |
| KFKFQFNMWQ [JG4] | 98.32% | 98.32% | 599.2 | 1.806 | 25.773 | 2.778 | 1.411 | 4.584 | 64 | 599.2 | 25.773 | 38349.21133 | 64 |
| QCKIKIQINMWQ [EF-C opt] | 93.68% | 93.68% | 21.24 | 2.6 | 11.97 | 1.327 | 1.078 | 3.927 | 398 | 21.24 | 11.97 | 8454 | 398 |
| CSISIQI [TM141] |  | 76.63% | 112.5 | 2.091 | 18.872 | 2.051 | 1.276 | 4.142 | 123.3 | 112.5 | 18.872 | 13871.26567 | 123.3 |
| CKFKFQFNM [BL3] | 99.03% | 99.03% | 19.89 | 2.2313 | 11.55 | 1.299 | 1.063 | 3.53 | 170.3 | 19.89 | 11.55 | 3388 | 170.3 |

Source: paper PMC10447463, “Data-mining unveils structure–property–activity correlation of viral infectivity enhancing self-assembling peptides” (Nature Communications, 2023)
